From ChEMBL document CHEMBL4613329, “Characterization of Inhibition Reveals Distinctive Properties for Human and Saccharomyces cerevisiae CRM1” (J Med Chem, 2020)
The source made the active and inactive calls. The rule behind the calls is not given here.

Experiments:
Exportin-1 [1] = molecular target: T1, Exportin-1 (Homo sapiens, UniProt O14980); experiment: Inhibition of fluorescently labeled PKI phi(0)Leu NES binding to human CRM1 expressed in Escherichia coli BL21 (DE3) by fluorescence polarization competition binding assay
[2] = tested on: Exportin-1 (Homo sapiens), O14980 [C528S]; experiment: Inhibition of fluorescently labeled PKI phi(0)Leu NES binding to human CRM1 C528S mutant expressed in Escherichia coli BL21 (DE3) at 62 uM by fluorescence polarization competition binding assay
Exportin-1 [3] = molecular target: T1, Exportin-1; experiment: Inhibition of immobilized HsCRM1-HsRanGTP-HsSPN binding to C-terminal His6-tagged and MBP-fused full length human CRM1 expressed in Escherichia coli SG13009 at 100 nmol incubated for 20 mins by pull-down assay
[4] = molecular target: Exportin-1 (Saccharomyces cerevisiae) (UniProt P30822); experiment: Inhibition of fluorescently labeled PKI phi(0)Leu NES binding to Saccharomyces cerevisiae CRM1 expressed in Escherichia coli BL21 (DE3) at 0.5 to 500 uM by fluorescence polarization competition binding assay
[5] = molecular target: Exportin-1 (Saccharomyces cerevisiae) (UniProt P30822); experiment: Inhibition of fluorescently labeled PKI phi(0)Leu NES binding to Saccharomyces cerevisiae CRM1 expressed in Escherichia coli BL21 (DE3) at 0.2 to 200 uM by fluorescence polarization competition binding assay
Saccharomyces cerevisiae [6] = experiment: Inhibition of fluorescently labeled PKI phi(0)Leu NES binding to Saccharomyces cerevisiae CRM1 Thr539Cys mutant expressed in Escherichia coli BL21 (DE3) at 0.2 to 200 uM by fluorescence polarization competition binding assay
Saccharomyces cerevisiae [7] = experiment: Inhibition of fluorescently labeled PKI phi(0)Leu NES binding to Saccharomyces cerevisiae CRM1 Thr539Cys mutant expressed in Escherichia coli BL21 (DE3) at 2 to 2000 nM by fluorescence polarization competition binding assay
[8] = tested on: Exportin-1 (Homo sapiens), O14980 [C528S]; settings: 200 nM
Description: Inhibition of fluorescently labeled PKI phi(0)Leu NES binding to human CRM1 C528S mutant expressed in Escherichia coli BL21 (DE3) at 200 nM by fluorescence polarization competition binding assay

[9] = molecular target: Exportin-1 (Saccharomyces cerevisiae) (UniProt P30822); settings: 2 to 2000 nM
Description: Inhibition of fluorescently labeled PKI phi(0)Leu NES binding to Saccharomyces cerevisiae CRM1 expressed in Escherichia coli BL21 (DE3) at 2 to 2000 nM by fluorescence polarization competition binding assay

[10] = tested on: Exportin-1 (Homo sapiens), O14980 [C528S]; experiment: Inhibition of fluorescently labeled PKI phi(0)Leu NES binding to human CRM1 C528S mutant expressed in Escherichia coli BL21 (DE3) at 6 uM by fluorescence polarization competition binding assay

Sequence of Exportin-1 (Homo sapiens), O14980 [C528S] (O14980 whole entry C528S, the tested form may be a part): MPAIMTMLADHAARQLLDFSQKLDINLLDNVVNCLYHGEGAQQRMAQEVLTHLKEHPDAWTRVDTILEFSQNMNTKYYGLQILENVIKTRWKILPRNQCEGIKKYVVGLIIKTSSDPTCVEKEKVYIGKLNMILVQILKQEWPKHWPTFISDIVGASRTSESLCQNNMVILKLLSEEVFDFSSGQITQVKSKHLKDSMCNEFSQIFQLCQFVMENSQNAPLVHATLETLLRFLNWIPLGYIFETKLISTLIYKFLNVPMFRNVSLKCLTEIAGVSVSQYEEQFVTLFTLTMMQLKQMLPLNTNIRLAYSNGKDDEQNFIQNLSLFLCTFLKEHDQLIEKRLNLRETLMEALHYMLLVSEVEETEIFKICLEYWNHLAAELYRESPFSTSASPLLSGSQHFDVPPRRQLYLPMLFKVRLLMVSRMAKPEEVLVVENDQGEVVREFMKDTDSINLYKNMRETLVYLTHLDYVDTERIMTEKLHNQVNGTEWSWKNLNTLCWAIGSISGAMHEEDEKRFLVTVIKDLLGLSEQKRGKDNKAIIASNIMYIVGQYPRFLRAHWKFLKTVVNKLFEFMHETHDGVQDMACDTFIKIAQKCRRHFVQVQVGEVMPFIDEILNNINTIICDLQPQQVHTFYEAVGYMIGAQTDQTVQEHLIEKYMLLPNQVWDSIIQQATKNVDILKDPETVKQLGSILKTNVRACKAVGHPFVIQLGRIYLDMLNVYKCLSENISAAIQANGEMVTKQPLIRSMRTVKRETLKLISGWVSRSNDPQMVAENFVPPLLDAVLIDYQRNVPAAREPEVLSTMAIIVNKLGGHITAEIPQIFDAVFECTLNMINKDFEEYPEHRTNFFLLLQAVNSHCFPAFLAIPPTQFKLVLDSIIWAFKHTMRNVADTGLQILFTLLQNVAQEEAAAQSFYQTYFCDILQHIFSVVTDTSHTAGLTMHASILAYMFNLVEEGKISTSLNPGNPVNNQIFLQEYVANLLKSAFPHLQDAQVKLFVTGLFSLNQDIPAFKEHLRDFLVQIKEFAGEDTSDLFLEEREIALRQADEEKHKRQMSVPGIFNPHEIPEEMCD
T1 sequence (O14980 whole entry): as the sequence (O14980 whole entry C528S, the tested form may be a part) above, with S528C counted along it

Which IC50 (Exportin-1 [1]) does the source give for `CCOC(=O)c1n[nH]c2c1C(=O)N(c1ccc([N+](=O)[O-])cc1)C2=O` here?
The IC50 was 63 µM.

And the inhibition [2]?
Its inhibition is “Active”.

And the inhibition (Exportin-1 [3])?
The inhibition was “Active”.

And the inhibition [4]?
Its inhibition is “Active”.

Which results are given for `NC(=O)c1c(NC(NC(=O)c2ccccc2F)(C(F)(F)F)C(F)(F)F)sc2c1CCCC2`?
IC50 (Exportin-1 [1]): 59 µM; inhibition (Exportin-1 [1]): Dose-dependent effect; inhibition [2]: inactive; inhibition (Exportin-1 [3]): inactive; inhibition [5]: inactive; inhibition (Saccharomyces cerevisiae [6]): inactive

With `COc1cc2cnsc2s1` as the molecule, how does the IC50 (Exportin-1 [1]) read?
Its IC50 is 40 µM.

What about the inhibition (Exportin-1 [1]) of the same molecule?
Its inhibition is “Dose-dependent effect”.

And the inhibition [2]?
Its inhibition is “inactive”.

And the inhibition (Exportin-1 [3])?
The inhibition was “inactive”.

With `CCC(=C/[C@H](C)C/C=C/C(C)=C/[C@@H](C)C(=O)[C@@H](C)[C@H](O)[C@@H](C)C/C(C)=C/C(=O)O)/C=C/[C@@H]1OC(=O)C=C[C@@H]1C` [LEPTOMYCIN B] as the molecule, how does the IC50 (Exportin-1 [1]) read?
Its IC50 is 0.151 µM.

What about the inhibition (Saccharomyces cerevisiae [7]) of the same molecule?
Its inhibition is “Active”.

What about the inhibition [8] of the same molecule?
Its inhibition is “inactive”.

What about the inhibition [9] of the same molecule?
The inhibition was “inactive”.

What does the source list for `COc1cc(-c2nc(S(=O)(=O)c3ccc(Cl)cc3)c(N(C)C)o2)cc(OC)c1OC`?
IC50 (Exportin-1 [1]): 4.2 µM; inhibition (Exportin-1 [1]): Dose-dependent effect; inhibition [10]: inactive; inhibition (Exportin-1 [3]): Active; inhibition [5]: inactive; inhibition (Saccharomyces cerevisiae [6]): inactive
